Read-outs that look alike come from different tables or passages of the source.
Key:
α5GABAA receptors [1] = target: T1, α5GABAA receptors (Mus musculus, UniProt P22723+Q8BHJ7); test: Fear conditioning (contextual and cued) after isoflurane anesthesia; assay type: in vivo, C57BL6/J mice; set-up: from tissue; host or cells: brain of living mice (behavioural tests); conditions: for freezing score to context, short-term memory: tested 30 min after training; for freezing score to auditory tone, short-term memory: tested 90 min after conditioning; for freezing score to auditory tone, long-term memory / freezing score to context, long-term memory: tested 2 days after conditioning
T1 sequence (Q8BHJ7 32-463 limits assumed): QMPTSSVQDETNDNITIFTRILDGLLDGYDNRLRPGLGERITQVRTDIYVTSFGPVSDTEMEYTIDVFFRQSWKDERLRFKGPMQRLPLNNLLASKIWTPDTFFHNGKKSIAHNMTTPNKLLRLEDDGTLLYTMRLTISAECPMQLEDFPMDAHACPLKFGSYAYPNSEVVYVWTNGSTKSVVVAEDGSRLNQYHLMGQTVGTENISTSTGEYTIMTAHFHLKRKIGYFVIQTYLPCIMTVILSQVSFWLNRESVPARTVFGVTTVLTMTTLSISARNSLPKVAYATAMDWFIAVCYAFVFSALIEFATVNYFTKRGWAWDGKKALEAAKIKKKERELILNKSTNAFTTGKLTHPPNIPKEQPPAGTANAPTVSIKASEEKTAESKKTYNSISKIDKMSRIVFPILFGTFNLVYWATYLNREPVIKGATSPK
T1 sequence (P63080 26-473 partner): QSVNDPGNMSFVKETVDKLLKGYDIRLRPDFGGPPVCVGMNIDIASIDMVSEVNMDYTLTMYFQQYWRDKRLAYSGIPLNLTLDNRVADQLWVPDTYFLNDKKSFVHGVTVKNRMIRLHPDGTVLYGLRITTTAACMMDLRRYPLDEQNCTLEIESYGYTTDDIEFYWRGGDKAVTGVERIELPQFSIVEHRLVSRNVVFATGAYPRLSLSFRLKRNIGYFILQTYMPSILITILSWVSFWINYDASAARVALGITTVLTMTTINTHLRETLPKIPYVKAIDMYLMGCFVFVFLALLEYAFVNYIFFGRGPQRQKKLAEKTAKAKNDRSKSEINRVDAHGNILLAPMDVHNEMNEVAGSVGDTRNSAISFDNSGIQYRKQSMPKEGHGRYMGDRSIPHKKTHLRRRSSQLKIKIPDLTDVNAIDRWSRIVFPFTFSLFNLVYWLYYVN
T1 sequence (P22723 39-474): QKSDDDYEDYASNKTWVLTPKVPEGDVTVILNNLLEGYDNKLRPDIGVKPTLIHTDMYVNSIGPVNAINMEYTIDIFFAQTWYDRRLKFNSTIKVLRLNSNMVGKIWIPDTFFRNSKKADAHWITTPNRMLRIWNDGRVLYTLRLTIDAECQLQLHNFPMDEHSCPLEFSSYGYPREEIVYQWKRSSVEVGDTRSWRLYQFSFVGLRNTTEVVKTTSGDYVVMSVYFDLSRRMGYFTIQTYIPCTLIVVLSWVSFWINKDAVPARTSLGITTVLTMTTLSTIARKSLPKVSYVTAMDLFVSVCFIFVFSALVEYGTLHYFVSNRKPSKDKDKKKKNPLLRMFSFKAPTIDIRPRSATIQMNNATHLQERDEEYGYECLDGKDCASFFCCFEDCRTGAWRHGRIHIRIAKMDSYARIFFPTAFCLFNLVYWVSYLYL
Experimental: To prevent hypothermia during anesthesia, the floor of the chamber was warmed with a heating blanket. […] The mouse was then either returned to its home cage and allowed to recover for 24 h (24-h groups) or taken to a holding cage in an adjacent room (1-h groups). For continuity and to ensure that the experimenter who performed the fear-conditioning studies was blinded to the treatment group, mice that were allowed to recover for 24 h were placed back in a heated for 45 min before the behavioral experiments. FIGS. 1A and 1B summarize the time course of the experimental procedures. In FIG. 1A, each stage of the experimental paradigm is represented by chronological boxes and cartoons. Relative time is indicated below the boxes (t=0, start of fear conditioning training). The duration of each stage is inset at the bottom left. […] Four groups of isoflurane-treated subjects were used (1 h recovery+L-655,708; 1 h recovery+vehicle; 24 h recovery+L-655,708; 24 h recovery+vehicle). Two oxygen-control group was used (1 h recovery+L-655,708; 1 h recovery+vehicle). 10 min prior to fear conditioning, subjects were examined in the elevated plus maze (EPM). Subjects were tested for short-term memory (STM) and long-term memory (LTM) of the context and tone.
Testing of memory function was performed using two fear-conditioning paradigms. These tests study the ability of mice to learn and remember an association between an aversive stimulus (foot shock) and non-aversive or neutral stimuli (environmental context or an auditory cue). […] Each mouse was introduced to the fear conditioning chamber (50 cm wide×15 cm deep×15 cm high, Process Control Fear Conditioning Monitor GmbH 303410, Technical & Scientific Equipment Systems Inc., Chesterfield, Mo.). The chamber was illuminated with an interior overhead light (50 lx) and was equipped with a stainless steel grid floor connected to a constant-current shock generator. Each mouse was allowed to explore the chamber for 3 min before presentation of a pulsating tone (80 dB, 3600 Hz) which persisted for 30 s. The tone was followed immediately by a mild foot shock (0.7 mA for 0.5 s). The mouse was allowed to explore the chamber for a further 30 s after the shock to study post-shock freezing.
Freezing was scored using Observer software (Noldus Information Technology, Wagoningen, The Netherlands), by an experimenter who was blinded to the treatment groups. Before each new training session, the chamber was cleaned with 70% ethanol to mask and eliminate odors from the previous mouse.
Short-term memory for contextual learning was probed 30 min after training by re-exposed the mice to the same fear conditioning chamber for […]. Long-term memory for contextual learning was studied 2 days (48 h) after conditioning by re-exposing the mice to the conditioning chamber. Short-term memory for cued learning was determined 90 min after training by first allowing the mice to explore a modified chamber scented with 5% acetic acid and containing a plastic floor and cardboard walls and then after 3 min, re-presenting the tone (2-Hz pulsating tone, 80 dB, 3600 Hz) for 3 min. Non-specific freezing was measured during the exploration of the novel chamber prior to presenting the tone. Freezing scores to study recall were measured during presentation of the tone. Long-term memory for cued learning was determined by introducing the mice into the modified chamber and presenting the tone 2 days (48 h) after conditioning.

[2] = cited from earlier work
[3] = Balance beam and tail flick 1 h after isoflurane; assay type: in vivo, mice; conditions: 1 h after isoflurane or vehicle
Experimental: Mice were gently held by the scruff and allowed free movement of the tail. The tip of the tail was inserted to about 1 cm depth into a beaker of water (49° C.). The latency for the mouse to remove its tail from the water was recorded and used as an indication of nociception. […] Indicators of motor coordination and mobility include the time for the mice to spontaneously cross the beam, and the number of times the hindfoot slipped off the beam. Average values of three repetitions for each mouse were reported.

α5GABAA receptors [4] = target: T1, α5GABAA receptors
[5] = Tail-clamp withdrawal assay (MAC of isoflurane) and recovery of righting reflex; assay type: in vivo, mice
Experimental: The MAC value was calculated as the mean value of these two concentrations.

Elevated plus maze = assay type: in vivo, mice; conditions: for total number of visits to the middle area: vehicle (row isoflurane) or L-655,708
From the text: Anxiety levels were studied using an elevated plus maze consisting of an acrylic glass apparatus in the shape of a cross (45 cm long×7 cm wide, with a central region of 7 cm×7 cm). Two opposing arms were enclosed with opaque white plastic walls (28 cm high, closed arms), whereas the other two opposing arms were left open (open arms). […] An observer blinded to treatment group recorded the position of each mouse on the maze using Observer software. The time spent in the center and in the open and closed arms were measured over 5 min. In addition, motor activity was quantified to study locomotion.

SMILES: FC(F)OC(Cl)C(F)(F)F (centres unmarked) [isoflurane]
- mean freezing score, short-term contextual fear conditioning (α5GABAA receptors [1]; independent cohort of 14 mice, 24 h after isoflurane): 32.8%
- freezing score to context, short-term memory (α5GABAA receptors [1]; trained 1 h after isoflurane (1 MAC, 1 h), L-655,708 0.7 mg/kg s.c. or vehicle 10 min before isoflurane): 54.6±5.9%
- freezing score to context, short-term memory (α5GABAA receptors [1]; trained 24 h after isoflurane, L-655,708 0.7 mg/kg s.c. or vehicle before isoflurane): 51.6±8.0%
- freezing score to auditory tone, short-term memory (α5GABAA receptors [1]; trained 1 h after isoflurane): 35.7±6.43%
- freezing score to auditory tone, short-term memory (α5GABAA receptors [1]; trained 24 h after isoflurane): 49.1+8.8%
- freezing score to auditory tone, long-term memory (α5GABAA receptors [1]; trained 1 h after isoflurane): 21.8±23.1%
- freezing score to context, long-term memory (α5GABAA receptors [1]; trained 1 h after isoflurane): 36.4±26.9%
- freezing score to auditory tone, long-term memory (α5GABAA receptors [1]; trained 24 h after isoflurane): 41.2±31.2%
- freezing score to context, long-term memory (α5GABAA receptors [1]; trained 24 h after isoflurane): 48.9±8.6%
- fraction that had left the brain ([2]; after 270 min of elimination following isoflurane 1.3% for 90 min): 96%
- elimination, initial fast component ([2]; humans): 5 min
- elimination, slower component ([2]; humans): 15 min
- fraction metabolized ([2]; in vivo): less than 0.2%
- fraction recovered in expired gas ([2]; in vivo): ~100%
- fraction eliminated from the brain ([2]; within 270 min, laboratory animals): 97%
- balance beam crossing times and foot slips (in words) [3]: No differences were observed between treatment groups
- latency to tail flick (in words) [3]: No differences were detected in the latency to tail flick
- effect of the anesthetic on recognition memory, wild-type mice (in words) (α5GABAA receptors [4]; 24 h after anesthesia): failed to recognize the familiar object and exhibited no preference for the novel object
- memory performance of Gabra5−/− mice (in words) (α5GABAA receptors [4]; 24 h after anesthesia): did not cause significant impairment of memory performance in Gabra5−/− mice
- effect of the anesthetic on recognition memory, wild-type mice (in words) (α5GABAA receptors [4]; 24 h after anesthesia, listed as Isoflurane): demonstrated normal working memory
- time spent exploring both objects during training (α5GABAA receptors [4]; 72 h after isoflurane): 46.65 ± 6.57 s
- discrimination ratio, short-term memory (α5GABAA receptors [4]; 72 h after isoflurane, n=10): 0.60±0.04
- discrimination ratio, short-term memory (α5GABAA receptors [4]; Gabra5−/− mice, 24 h after isoflurane): 0.62±0.05
- time by which short-term memory deficits resolved (α5GABAA receptors [4]; after isoflurane 1.3% 1 h): ≤ 72 h
- discrimination ratio, short-term memory (α5GABAA receptors [4]; high-dose experiment: isoflurane + vehicle injection (row isoflurane) or + L-655,708 0.7 mg/kg 30 min before training): 0.54±0.04
- discrimination ratio, short-term memory (α5GABAA receptors [4]; prevention experiment, wild-type, isoflurane + vehicle injection, n=11): 0.53±0.05
- time spent exploring sample objects during training (α5GABAA receptors [4]; short-term memory experiment, 24 h after isoflurane): 62.3 ± 9.44 s
- discrimination ratio, working memory (α5GABAA receptors [4]; tested 1 min after training, 24 h after isoflurane 1.3% 1 h, n=10): 0.67±0.04
- discrimination ratio, short-term memory (α5GABAA receptors [4]; tested 1 h after training, 24 h after isoflurane, vehicle injection, wild-type, n=31): 0.51±0.03
- time spent exploring both sample objects during training (α5GABAA receptors [4]; working memory experiment, 24 h after isoflurane): 49.28 ± 9.60 s
- time to self-right after the immobilizing dose of isoflurane ([5]; L-655,708 or vehicle pretreatment, n=9): 153 ± 26 s
- immobilizing dose (MAC value) of isoflurane ([5]; tail-clamp, mice pretreated with L-655,708 0.7 mg/kg s.c. (row L-655,708) or vehicle (row isoflurane), n=17): 1.33±0.02
- total number of visits to the middle area (Elevated plus maze; 1 h Iso): 19.9±4.6
- total number of visits to the middle area (Elevated plus maze; 24 h Iso): 18.1±5.3
- anxiety in the elevated plus maze (in words) (Elevated plus maze; mouse, in vivo): neither isoflurane, nor L-655,708 had any effect on anxiety on their own
